Our source for the IC50 values is patent US11352363B1, “Spiropyrrolidine derived antiviral agents” (Enanta Pharmaceuticals, Inc., priority 2020, dated 2022).

By IC50 is commonly meant the concentration at which inhibition is half-maximal.

SMILES strings stand for the structures. Bounds are passed on as bounds.

In one assay the target is SARS-CoV-2 3CL-protease (Severe acute respiratory syndrome coronavirus 2 (2019-nCoV) (SARS-CoV-2), UniProt P0DTD1). The experiment in a line: SARS-CoV-2 3C-like (3CL) protease fluorescence assay (FRET). Type of assay: biochemical.
Conditions: not given
`COc1cccc2[nH]c(C(=O)N[C@H](C(=O)N3C[C@]4(C[C@H]3C#N)C(=O)Nc3ccccc34)C(C)OC(C)(C)C)cc12` (stereo partly drawn) [Compound 22] yielded an IC50 of 100 to 1000 nM.

`CC(OC(C)(C)C)[C@H](NC(=O)OCc1ccccc1)C(=O)N1C[C@]2(C[C@H]1C#N)C(=O)Nc1ccccc12` (stereo partly drawn) [Compound 6] came in with an IC50 of more than 1000 nM.

Staying with this assay, now noted: read-out: FRET IC50.
As to `COc1cccc2[nH]c(C(=O)N[C@@H](CC(C)C)C(=O)N3C[C@]4(C[C@H]3C(=O)C(=O)NC3CCCCC3)C(=O)Nc3ccccc34)cc12` [Compound 33], the concentration for half-maximal inhibition (IC50) was less than 100 nM. Same read-out and setting: to `COc1cccc2[nH]c(C(=O)N[C@@H](CC(C)C)C(=O)N3C[C@]4(C[C@H]3C(=O)NS(=O)(=O)C3CC3)C(=O)Nc3ccccc34)cc12` [Compound 38] belongs more than 1000 nM. Same read-out and setting: then `CC(C)C[C@@H](C(=O)N1C[C@]2(C[C@H]1C#N)C(=O)Nc1ccccc12)N(C)C(=O)c1[nH]c2ccccc2c1-c1ccccc1` [Compound 48], with 100 to 1000 nM; and `CC(C)C[C@@H](C(=O)N1C[C@]2(C[C@H]1C#N)C(=O)Nc1ccccc12)N(C)C(=O)c1cc2c(F)cccc2[nH]1` [Compound 44], with less than 100 nM. Same read-out and setting: then `COc1cccc2[nH]c(C(=O)N[C@@H](CC(C)C)C(=O)N3C[C@]4(C[C@H]3C(O)S(=O)(=O)O)C(=O)Nc3ccccc34)cc12` (stereo partly drawn) [Compound 29], with less than 100 nM; and `CN(C(=O)OCc1ccccc1)[C@@H](CC1CCC1)C(=O)N1C[C@]2(C[C@H]1C#N)C(=O)Nc1ccccc12` [Compound 89], with less than 100 nM. As for `COc1cccc2[nH]c(C(=O)N[C@@H](CC(C)(C)C)C(=O)N3C[C@]4(C[C@H]3C#N)C(=O)Nc3ccccc34)cc12` [Compound 15], the IC50 is less than 100 nM.

As for `CC(C)(C)OC[C@H](NC(=O)OCc1ccccc1)C(=O)N1C[C@]2(C[C@H]1C#N)C(=O)Nc1ccccc12` [Compound 10], the concentration for half-maximal inhibition (IC50) was in the range of 100 to 1000 nM. Still for that read-out and setting: to `CC(C)C[C@H](NC(=O)NCc1ccccc1)C(=O)N1C[C@]2(C[C@H]1C#N)C(=O)Nc1ccccc12` [Compound 122] belongs less than 100 nM; to `CN(C(=O)c1cc2c(F)cccc2[nH]1)[C@@H](CC(C)(C)C)C(=O)N1C[C@]2(C[C@H]1C#N)C(=O)Nc1ccccc12` [Compound 87], less than 100 nM. Still for that read-out and setting: then `CC(C)C[C@@H](C(=O)N1C[C@]2(C[C@H]1C#N)C(=O)Nc1ccccc12)N(C)C(=O)c1cc(F)ccc1Cl` [Compound 62], with less than 100 nM; and `CC(C)C[C@@H](C(=O)N1C[C@]2(C[C@H]1C#N)C(=O)Nc1ccccc12)N(C)C(=O)c1cc2c(C3CC3)cccc2[nH]1` [Compound 45], with less than 100 nM. Still for that read-out and setting: to `CC(C)C[C@@H](C(=O)N1C[C@]2(C[C@H]1C#N)C(=O)Nc1ccccc12)N(C)C(=O)c1cc2c(Br)cccc2[nH]1` [Compound 79] belongs less than 100 nM; to `CN(C(=O)c1cc2c(F)cccc2[nH]1)[C@@H](Cc1ccccc1)C(=O)N1C[C@]2(C[C@H]1C#N)C(=O)Nc1ccccc12` [Compound 80], less than 100 nM; to `CC(C)C[C@@H](C(=O)N1C[C@]2(C[C@H]1C#N)C(=O)Nc1ccccc12)N(C)C(=O)c1cc2c(Cl)cc(F)cc2[nH]1` [Compound 72], less than 100 nM. Consider `CC(C)C[C@@H](C(=O)N1C[C@]2(C[C@H]1C#N)C(=O)Nc1ccccc12)N(C)C(=O)c1cc2c(OC3CC3)cccc2[nH]1` [Compound 82], for which the IC50 was less than 100 nM.

For the compound `CC(C)C[C@@H](C(=O)N1C[C@]2(C[C@H]1C#N)C(=O)Nc1ccccc12)N(C)C(=O)OCc1ccccc1` [Compound 39], the IC50 was less than 100 nM.

On to `CC(C)C[C@@H](C(=O)N1C[C@]2(C[C@H]1C#N)C(=O)Nc1ccccc12)N(C)C(=O)c1cc2cc(Cl)cc(Cl)c2[nH]1` [Compound 76], for which the concentration for half-maximal inhibition (IC50) was less than 100 nM. On the same count and under the same terms, then `CC(C)C[C@@H](C(=O)N1C[C@]2(C[C@H]1C#N)C(=O)Nc1ccccc12)N(C)C(=O)c1cc2c(OC(F)F)cccc2[nH]1` [Compound 51], with less than 100 nM; and `COc1cccc2[nH]c(C(=O)N(C)[C@@H](CC(C)C)C(=O)N3C[C@]4(C[C@H]3C(=O)C(=O)NC3CCCCC3)C(=O)Nc3ccccc34)cc12` [Compound 34], with more than 1000 nM. Take `CC(C)C[C@@H](C(=O)N1C[C@]2(C[C@H]1C#N)C(=O)Nc1ccccc12)N(C)C(=O)c1cc2cc(F)c(F)cc2[nH]1` [Compound 69]: the IC50 was less than 100 nM. On the same count and under the same terms, to `CN(C(=O)c1cc2c(F)cc(F)cc2[nH]1)[C@@H](CC1CCCCC1)C(=O)N1C[C@]2(C[C@H]1C#N)C(=O)Nc1ccccc12` [Compound 111] belongs less than 100 nM; to `CC(C)C[C@@H](C(=O)N1C[C@]2(C[C@H]1C#N)C(=O)Nc1ccccc12)N(C)C(=O)c1[nH]c2ccc(F)cc2c1Cl` [Compound 77], 100 to 1000 nM; to `CC(C)C[C@@H](C(=O)N1C[C@]2(C[C@H]1C#N)C(=O)Nc1ccccc12)N(C)C(=O)c1cc2c(F)c(F)c(F)cc2[nH]1` [Compound 83], less than 100 nM.

Regarding `CN(C(=O)c1cc2c(F)c(F)ccc2[nH]1)[C@@H](CC1CCCCC1)C(=O)N1C[C@]2(C[C@H]1C#N)C(=O)Nc1ccccc12` [Compound 112], the 50% inhibitory concentration (IC50) is less than 100 nM. On the same count and under the same terms, then `CC(C)C[C@@H](C(=O)N1C[C@]2(C[C@H]1C#N)C(=O)Nc1ccccc12)N(C)C(=O)c1n[nH]c2ccccc12` [Compound 75], with less than 100 nM.

As to `CN(C(=O)c1cc2c(F)cc(F)cc2[nH]1)[C@@H](CC(C)(C)C)C(=O)N1C[C@]2(C[C@H]1C#N)C(=O)Nc1ccccc12` [Compound 88], the IC50 is less than 100 nM. In the case of `CC(C)(C)[C@H](NC(=O)c1cc2c(F)cccc2[nH]1)C(=O)N1C[C@]2(C[C@H]1C#N)C(=O)Nc1ccccc12` [Compound 18], the IC50 was more than 1000 nM.

In the case of `CC(C)(C)C[C@H](NC(=O)OCc1ccccc1)C(=O)N1C[C@]2(C[C@H]1C#N)C(=O)Nc1ccccc12` [Compound 5], the IC50 is less than 100 nM. Still for that read-out and setting: then `CC(C)C[C@@H](C(=O)N1C[C@]2(C[C@H]1C#N)C(=O)Nc1ccccc12)N(C)C(=O)c1cc2c(Cl)cccc2[nH]1` [Compound 65], with less than 100 nM; and `CCN(C(=O)OCc1ccccc1)[C@@H](CC(C)C)C(=O)N1C[C@]2(C[C@H]1C#N)C(=O)Nc1ccccc12` [Compound 90], with less than 100 nM. Same read-out and setting: to `COc1cccc2[nH]c(C(=O)N(C)[C@@H](CC3CCC3)C(=O)N3C[C@]4(C[C@H]3C#N)C(=O)Nc3ccccc34)cc12` [Compound 92] belongs less than 100 nM.

For the compound `COc1cccc2[nH]c(C(=O)N[C@@H](CC(C)C)C(=O)N3C[C@]4(C[C@H]3C=O)C(=O)Nc3ccccc34)cc12` [Compound 23], the half-inhibitory concentration (IC50) is less than 100 nM. On the same count and under the same terms, then `COc1cccc2[nH]c(C(=O)N[C@@H](CC(C)C)C(=O)N3C[C@]4(C[C@H]3C#N)C(=O)Nc3ccccc34)cc12` [Compound 11], with less than 100 nM; and `CC(C)C[C@H](NC(=O)OCc1ccccc1)C(=O)N1C[C@]2(C[C@H]1C#N)C(=O)Nc1ccccc12` [Compound 1], with 100 to 1000 nM. With `CN(C(=O)c1cnn(-c2ccccc2C(F)(F)F)c1)[C@@H](CC1CC1)C(=O)N1C[C@]2(C[C@H]1C#N)C(=O)Nc1ccccc12` [Compound 124], the half-maximal inhibitory concentration (IC50) is less than 100 nM. Same read-out and setting: then `CC(C)C[C@@H](C(=O)N1C[C@]2(C[C@H]1C#N)C(=O)Nc1ccccc12)N(C)C(=O)c1c(Cl)cccc1Cl` [Compound 64], with less than 100 nM; and `CN(C(=O)OCc1ccccc1)[C@@H](CC(C)(C)C)C(=O)N1C[C@]2(C[C@H]1C#N)C(=O)Nc1ccccc12` [Compound 40], with less than 100 nM; and `CCN(C(=O)c1cc2c(F)cccc2[nH]1)[C@@H](CC(C)C)C(=O)N1C[C@]2(C[C@H]1C#N)C(=O)Nc1ccccc12` [Compound 95], with less than 100 nM.

As for `COc1cccc2[nH]c(C(=O)N(C)[C@@H](CC3CCCC3)C(=O)N3C[C@]4(C[C@H]3C#N)C(=O)Nc3ccccc34)cc12` [Compound 106], the IC50 was less than 100 nM. The same measure, in the same setting: then `CC(C)C[C@@H](C(=O)N1C[C@]2(C[C@H]1C(=O)C(=O)NC1CCCCC1)C(=O)Nc1ccccc12)N(C)C(=O)c1cc2c(F)cccc2[nH]1` [Compound 35], with more than 1000 nM. In the case of `COc1cccc2[nH]c(C(=O)N(C)[C@@H](CC(C)C)C(=O)N3C[C@]4(C[C@H]3C#N)C(=O)N(C)c3ccccc34)cc12` [Compound 121], the IC50 is less than 100 nM. Same read-out and setting: to `CN(C(=O)c1cc2c(F)cc(F)cc2[nH]1)[C@@H](Cc1ccccc1)C(=O)N1C[C@]2(C[C@H]1C#N)C(=O)Nc1ccccc12` [Compound 81] belongs less than 100 nM; to `CC(C)C[C@@H](C(=O)N1C[C@]2(C[C@H]1C#N)C(=O)Nc1ccccc12)N(C)C(=O)c1cc2ccc(C(C)(C)C)cc2[nH]1` [Compound 57], less than 100 nM; to `CC(C)C[C@@H](C(=O)N1C[C@]2(C[C@H]1C#N)C(=O)Nc1ccccc12)N(C)C(=O)c1cc2c(Br)ccc(Cl)c2[nH]1` [Compound 66], less than 100 nM. Regarding `CCCN(C(=O)c1cc2c(F)cc(F)cc2[nH]1)[C@@H](CC(C)C)C(=O)N1C[C@]2(C[C@H]1C#N)C(=O)Nc1ccccc12` [Compound 99], the IC50 is less than 100 nM. Still for that read-out and setting: then `CC(C)C[C@H](NC(=O)OCC1(c2ccccc2)CC1)C(=O)N1C[C@]2(C[C@H]1C#N)C(=O)Nc1ccccc12` [Compound 8], with less than 100 nM; and `CC(C)C[C@@H](C(=O)N1C[C@]2(C[C@H]1C(O)S(=O)(=O)O)C(=O)Nc1ccccc12)N(C)C(=O)c1cc2c(F)cccc2[nH]1` (stereo partly drawn) [Compound 30], with less than 100 nM; and `COc1cccc2[nH]c(C(=O)N[C@@H](CC(C)C)C(=O)N3C[C@]4(C[C@H]3C(=O)O)C(=O)Nc3ccccc34)cc12` [Compound 37], with 100 to 1000 nM.

Take `CC(C)C[C@@H](C(=O)N1C[C@]2(C[C@H]1C#N)C(=O)Nc1ccccc12)N(C)C(=O)c1cncc(C#N)c1` [Compound 60]: the IC50 was less than 100 nM. Same read-out and setting: then `CN(C(=O)c1cc2c(F)cc(F)cc2[nH]1)[C@@H](CC1CC1)C(=O)N1C[C@]2(C[C@H]1C#N)C(=O)Nc1ccccc12` [Compound 115], with less than 100 nM.

Staying with this assay, now noted: recombinant SARS-CoV-2 3CL-protease 10 nM, 30 min preincubation, run in duplicate; read-out: FRET IC50.
Consider `COc1cc(C#N)cc2[nH]c(C(=O)N[C@@H](CC(C)C)C(=O)N3C[C@]4(C[C@H]3C#N)C(=O)Nc3ccccc34)cc12` [Compound 26], for which the IC50 is 100 to 1000 nM.
